12 compounds from patent US9938299B2, “Glycosidase inhibitors and uses thereof” (MERCK SHARP & DOHME CORP., priority 2012, dated 2018) can be followed below.

One data set concerns the target T1, human O-GlcNAcase (Homo sapiens, UniProt O60502).
T1 sequence (O60502 1-916): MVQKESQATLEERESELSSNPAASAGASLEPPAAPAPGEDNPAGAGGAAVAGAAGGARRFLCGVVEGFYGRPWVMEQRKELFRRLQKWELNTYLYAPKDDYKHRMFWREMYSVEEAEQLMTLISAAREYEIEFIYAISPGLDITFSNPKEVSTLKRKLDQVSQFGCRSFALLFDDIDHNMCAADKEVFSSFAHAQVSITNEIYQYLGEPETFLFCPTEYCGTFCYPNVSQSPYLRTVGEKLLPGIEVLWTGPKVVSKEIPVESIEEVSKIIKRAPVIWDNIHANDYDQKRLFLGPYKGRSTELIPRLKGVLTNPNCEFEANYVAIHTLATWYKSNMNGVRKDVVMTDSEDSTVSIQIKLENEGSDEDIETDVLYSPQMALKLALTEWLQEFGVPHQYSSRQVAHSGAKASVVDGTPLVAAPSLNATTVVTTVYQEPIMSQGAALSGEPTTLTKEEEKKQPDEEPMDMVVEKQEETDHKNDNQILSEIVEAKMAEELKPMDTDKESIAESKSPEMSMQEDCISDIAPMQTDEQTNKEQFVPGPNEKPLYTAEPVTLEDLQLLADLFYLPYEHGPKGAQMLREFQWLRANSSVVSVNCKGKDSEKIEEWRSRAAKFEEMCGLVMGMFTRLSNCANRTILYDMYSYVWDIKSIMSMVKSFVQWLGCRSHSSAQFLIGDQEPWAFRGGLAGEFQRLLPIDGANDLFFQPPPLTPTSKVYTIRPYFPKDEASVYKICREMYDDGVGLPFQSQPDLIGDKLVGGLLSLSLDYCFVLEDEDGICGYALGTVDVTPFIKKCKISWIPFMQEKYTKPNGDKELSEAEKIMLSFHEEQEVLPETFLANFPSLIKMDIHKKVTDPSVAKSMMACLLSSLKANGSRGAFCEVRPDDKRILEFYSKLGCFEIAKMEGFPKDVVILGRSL
The data set can be described thus: Determination of KI values for inhibition of O-GlcNAcase activity (fluorogenic 4-methylumbelliferyl GlcNAc substrate). Type of data set: biochemical. How it is done: Assay for Determination of […] for Inhibition of O-GlcNAcase Activity
Experimental procedure for kinetic analyses: Enzymatic reactions were carried out in a reaction containing 50 mM NaH2PO4, 100 mM NaCl and 0.1% BSA (pH 7.0) using 2 mM 4-Methylumbelliferyl N-acetyl-β-D-glucosaminide dihydrate (Sigma M2133) dissolved in ddH2O, as a substrate. The amount of purified human O-GlcNAcase enzyme used in the reaction was 0.7 nM. Test compound of varying concentrations was added to the enzyme prior to initiation of the reaction. The reaction was performed at room temperature in a 96-well plate and was initiated with the addition of substrate. […] The slope of product production was determined for each concentration of compound tested and plotted, using standard curve fitting algorithms for sigmoidal dose response curves. The values for a four parameter logistic curve fit of the data were determined.

The nature of data set [1]: Determination of apparent permeability (Papp), bi-directional transport in LLC-PK1 cells. It is filed as in vitro ADME. As to conditions: pig, t=3 h, average of A to B and B to A. Here is the method:
(§1) Bi-directional transport was evaluated in LLC-PK1 cells in order to determine apparent permeability (Papp). LLC-PK1 cells can form a tight monolayer and therefore can be used to assess vectorial transport of compounds from basolateral to apical (B→A) and from apical to basolateral (A→B).
(§2) To determine Papp LLC-PK1 cells were cultured in 96-well transwell culture plates (Millipore). Solutions containing the test compounds (1 μM) were prepared in Hank's Balanced Salt Solution with 10 mM HEPES. Substrate solution (150 μL) was added to either the apical (A) or the basolateral (B) compartment of the culture plate, and buffer (150 μL) was added to the compartment opposite to that containing the compound. At t=3 h, 50 μL samples were removed from both sides of monolayers dosed with test compound and placed in 96 well plates, scintillant (200 μL) or internal standard (100 μL labetolol 1 μM) was added to the samples and concentration was determined by liquid scintillation counting in a MicroBeta Wallac Trilux scintillation counter (Perkin Elmer Life Sciences, Boston, Mass.) or by LCMS/MS (Applied Biosystems SCIEX API 5000 triple quadruple mass spectrometer). [^3H]Verapamil (1 μM) was used as the positive control. The experiment was performed in triplicate.

The target in another data set is T2, hPgp (Homo sapiens, UniProt P08183).
T2 construct: expressed in transfected cells; host or cells: LLC-PK1 cells
T2 sequence (P08183 whole entry): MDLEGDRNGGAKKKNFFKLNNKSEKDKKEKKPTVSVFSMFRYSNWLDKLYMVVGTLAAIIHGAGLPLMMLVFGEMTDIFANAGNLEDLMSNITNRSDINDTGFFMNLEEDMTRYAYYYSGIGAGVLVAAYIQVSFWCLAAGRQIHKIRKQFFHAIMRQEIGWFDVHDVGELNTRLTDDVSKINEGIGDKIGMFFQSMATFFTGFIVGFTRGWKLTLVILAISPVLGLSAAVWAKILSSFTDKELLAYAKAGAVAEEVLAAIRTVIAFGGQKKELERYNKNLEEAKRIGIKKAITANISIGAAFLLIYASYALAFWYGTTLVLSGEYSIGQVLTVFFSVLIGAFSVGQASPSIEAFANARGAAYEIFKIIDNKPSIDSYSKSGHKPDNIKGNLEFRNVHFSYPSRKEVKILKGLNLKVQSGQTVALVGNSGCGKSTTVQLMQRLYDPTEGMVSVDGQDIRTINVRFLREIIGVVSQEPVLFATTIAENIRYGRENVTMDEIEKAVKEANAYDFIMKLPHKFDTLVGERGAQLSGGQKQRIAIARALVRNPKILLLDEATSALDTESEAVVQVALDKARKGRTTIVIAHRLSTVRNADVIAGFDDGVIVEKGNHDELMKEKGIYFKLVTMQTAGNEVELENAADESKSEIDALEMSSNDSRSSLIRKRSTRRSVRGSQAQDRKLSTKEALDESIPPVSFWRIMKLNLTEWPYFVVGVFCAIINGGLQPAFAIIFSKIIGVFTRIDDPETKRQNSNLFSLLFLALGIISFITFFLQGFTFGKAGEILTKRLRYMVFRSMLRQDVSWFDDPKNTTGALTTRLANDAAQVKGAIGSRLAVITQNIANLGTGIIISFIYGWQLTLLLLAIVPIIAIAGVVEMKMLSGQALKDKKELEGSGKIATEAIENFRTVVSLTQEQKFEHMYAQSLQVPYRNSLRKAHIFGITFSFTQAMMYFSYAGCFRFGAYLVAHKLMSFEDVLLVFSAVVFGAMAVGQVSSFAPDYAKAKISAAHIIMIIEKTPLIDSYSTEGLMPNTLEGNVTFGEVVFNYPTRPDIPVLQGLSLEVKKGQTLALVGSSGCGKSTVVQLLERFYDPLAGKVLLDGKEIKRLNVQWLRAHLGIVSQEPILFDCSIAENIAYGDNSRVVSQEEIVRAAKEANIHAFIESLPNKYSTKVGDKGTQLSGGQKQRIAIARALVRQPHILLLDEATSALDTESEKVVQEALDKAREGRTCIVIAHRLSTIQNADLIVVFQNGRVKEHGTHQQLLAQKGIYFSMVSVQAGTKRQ
The data set can be described thus: hPgp efflux ratio (Papp B→A/A→B ratio). It is filed as in vitro ADME. As to conditions: LLC-PK1. Here is the method:
as §1, §2

The mark [2] stands for this setting: purified human O-GlcNAcase 0.7 nM, 2 mM substrate, pH 7.0, room temperature, Cheng-Prusoff, read-out: Ki.

Read-outs that look alike come from different tables or passages of the source.

With `CNC1=N[C@@H]2[C@@H](O)[C@H](O)[C@@H](CCCc3ccc(OC)cc3)O[C@@H]2S1` [Example 34, (3aR,5R,6S,7R,7aR)-5-[3-(4-methoxyphenyl)propyl]-2-(methylamino)-5,6,7,7a-tetrahydro-3aH-pyrano[3,2-d][1,3]thiazole-6,7-diol], at human O-GlcNAcase (setting [2]), the Ki stood at 11.1 nM. Also, in data set [1], the Papp at 3 h, 1 μM came to 25 ×10⁻⁶ cm/s. For the same compound, the efflux ratio at 3 h, 1 μM on hPgp was determined as 3.4.
In turn, `CCNC1=N[C@@H]2[C@@H](O)[C@H](O)[C@@H](C(=O)O)O[C@@H]2S1` [Example 52, (3aR,5S,6S,7R,7aR)-2-(ethylamino)-6,7-dihydroxy-5,6,7,7a-tetrahydro-3aH-pyrano[3,2-d]thiazole-5-carboxylic acid] registered a Ki at human O-GlcNAcase of 27 nM.
Take `CCNC1=N[C@@H]2[C@@H](O)[C@H](O)[C@@H](C(=O)OC)O[C@@H]2S1` [Example 53, (3aR,5S,6S,7R,7aR)-N-ethyl-6,7-clihydroxy-5-(methoxycarbonyl)-5,6,7,7a-tetrahydro-3aH-pyrano[3,2-d]thiazol-2-aminium chloride]: at human O-GlcNAcase, the Ki was determined as 480 nM.
The same measure, in the same setting: the value for `CCNC1=N[C@@H]2[C@@H](O)[C@H](O)[C@@H](CCl)O[C@@H]2S1` [Example 54, (3aR,5S,6S,7R,7aR)-5-(chloromethyl)-2-(ethylamino)-5,6,7,7a-tetrahydro-3aH-pyrano[3,2-d]thiazole-6,7-diol] was 2.3 nM.
On to `CCNCC[C@H]1O[C@@H]2SC(NC)=N[C@@H]2[C@@H](O)[C@@H]1O` [Example 55, (3aR,5R,6S,7R,7aR)-5-(2-(ethylamino)ethyl)-2-(methylamino)-5,6,7,7a-tetrahydro-3aH-pyrano[3,2-d]thiazole-6,7-diol], for which the Ki at human O-GlcNAcase (setting [2]) was determined as 9.3 nM.
Same read-out and setting: the figure for `CN(C)C1=N[C@@H]2[C@@H](O)[C@H](O)[C@@H](C(C)(C)Cl)O[C@@H]2S1` [Example 56, (3aR,5S,6S,7R,7aR)-5-(2-chloropropan-2-yl)-2-(dimethylamino)-5,6,7,7a-tetrahydro-3aH-pyrano[3,2-d]thiazole-6,7-diol] is 207 nM; for `C#C[C@H]1O[C@@H]2SC(NCC)=N[C@@H]2[C@@H](O)[C@@H]1O` [Example 57, (3aR,5R,6S,7R,7aR)-2-(ethylamino)-5-ethynyl-5,6,7,7-tetrahydro-3aH-pyrano[3,2-d]thiazole-6,7-diol] it is 837 nM; for `CCNC1=N[C@@H]2[C@@H](O)[C@H](O)[C@@H](C#N)O[C@@H]2S1` [Example 58, (3aR,5R,6S,7R,7aR)-2-(ethylamino)-6,7-dihydroxy-5,6,7,7a-tetrahydro-3aH-pyrano[3,2-d]thiazole-5-carbonitrile] it is 601 nM.
The same measure, in the same setting: the figure for `CNC1=N[C@@H]2[C@@H](O)[C@H](O)[C@@H](CSc3ccccc3)O[C@@H]2S1` [Example 59, (3aR,5 S,6S,7R,7aR)-2-(methylamino)-5-((phenylthio)methyl)-5,6,7,7a-tetrahydro-3aH-pyrano[3,2-d]thiazole-6,7-diol] is 1.9 nM; for `CNC1=N[C@@H]2[C@@H](O)[C@H](O)[C@@H](CS(=O)(=O)c3ccccc3)O[C@@H]2S1` [Example 60, (3aR,5 S,6S,7R,7aR)-2-(methylamino)-5-((phenylsulfonyl)methyl)-5,6,7,7a-tetrahydro-3 aH-pyrano[3,2-d]thiazole-6,7-diol] it is 75 nM.
Still for that read-out and setting: the value for `CNC1=N[C@@H]2[C@@H](O)[C@H](O)[C@@H](CSCc3ccccc3)O[C@@H]2S1` [Example 61, (3aR,5S,6S,7R,7aR)-5-((benzylthio)methyl)-2-(methylamino)-5,6,7,7a-tetrahydro-3aH-pyrano[3,2-d]thiazole-6,7-diol] was 4.1 nM.
Turning to `CNC1=N[C@@H]2[C@@H](O)[C@H](O)[C@@H](CS(=O)(=O)Cc3ccccc3)O[C@@H]2S1` [Example 62, (3aR,5S,6S,7R,7aR)-5-((benzylsulfonyl)methyl)-2-(methylamino)-5,6,7,7a-tetrahydro-3aH-pyrano[3,2-d]thiazole-6,7-diol], the inhibitory constant (Ki) on human O-GlcNAcase (setting [2]) worked out at 352 nM. Further, the Papp at 3 h, 1 μM in data set [1] came to 1.3 ×10⁻⁶ cm/s. On hPgp, the efflux ratio at 3 h, 1 μM stood at 1.1.
